Data taken from ChEMBL document CHEMBL1126415, “Phosphonate derivatives of N9-benzylguanine: a new class of potent purine nucleoside phosphorylase inhibitors” (Bioorg Med Chem Lett, 1992).

Key:
[1] = target: T1, Purine nucleoside phosphorylase (Bos taurus, UniProt P55859); test: Inhibitory activity against calf spleen purine nucleoside phosphorylase in the presence of 1 mM (pi) […]
T1 sequence (P55859 whole entry): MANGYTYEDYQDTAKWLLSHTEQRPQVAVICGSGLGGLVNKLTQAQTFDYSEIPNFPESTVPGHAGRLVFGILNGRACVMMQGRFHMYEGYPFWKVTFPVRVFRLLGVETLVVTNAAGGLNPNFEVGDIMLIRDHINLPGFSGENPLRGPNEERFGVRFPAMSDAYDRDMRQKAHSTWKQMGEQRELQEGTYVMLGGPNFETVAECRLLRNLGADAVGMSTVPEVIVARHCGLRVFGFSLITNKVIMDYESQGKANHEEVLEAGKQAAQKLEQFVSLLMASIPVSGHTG

[2] = target: T1, Purine nucleoside phosphorylase; test: Inhibitory concentration against calf spleen purine nucleoside phosphorylase in the presence of 50 mM (pi) […]
[3] = target: T2, Purine nucleoside phosphorylase (Homo sapiens, UniProt P00491); test: Inhibitory concentration against human erythrocytic purine nucleoside phosphorylase in the presence of 50 mM (pi) […]
T2 sequence (P00491 whole entry): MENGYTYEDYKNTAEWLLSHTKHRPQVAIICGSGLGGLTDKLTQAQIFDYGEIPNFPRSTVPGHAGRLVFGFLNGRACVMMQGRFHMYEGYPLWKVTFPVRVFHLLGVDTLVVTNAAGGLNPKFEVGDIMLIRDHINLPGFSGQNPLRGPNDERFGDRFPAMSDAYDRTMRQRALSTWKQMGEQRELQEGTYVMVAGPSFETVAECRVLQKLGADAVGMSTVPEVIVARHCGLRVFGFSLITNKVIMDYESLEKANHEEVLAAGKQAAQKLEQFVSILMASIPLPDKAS

[4] = target: T2, Purine nucleoside phosphorylase; test: Inhibitory activity against human erythrocytic purine nucleoside phosphorylase in the presence of 1 mM (pi) […]
[5] = target: T2, Purine nucleoside phosphorylase; test: Tested for its inhibitory activity against human erythrocytic purine nucleoside phosphorylase

In the case of `Nc1nc(O)c2ncn(Cc3ccccc3/C=C(\F)P(=O)(O)O)c2n1`, the Ki [1] is reported as 0.8 nM and the IC50 [2] is reported as 60 nM.

`Nc1nc(O)c2ncn(Cc3ccccc3/C=C/P(=O)(O)O)c2n1` showed an IC50 [3] of 155 nM, a Ki [4] of 3.2 nM and an IC50 [2] of 85 nM.

`Nc1nc(O)c2ncn(Cc3ccccc3CC(F)(F)P(=O)(O)O)c2n1` gave an IC50 [2] of 200 nM.

`Nc1nc(O)c2ncn(Cc3ccccc3C(F)C(F)(F)P(=O)(O)O)c2n1` (stereo not given) showed an IC50 [3] of 85 nM and an IC50 [2] of 100 nM.

`Nc1nc2c(ncn2CCCCC(F)(F)P(=O)(O)O)c(=O)[nH]1` was tested, and the Ki [5] was 18 nM.

`Nc1nc(O)c2nc(N)n(Cc3ccccc3)c2n1` gave a Ki [5] of 200 nM.
